# Assay results published in patent publication US20230131111A1, “BIODEGRADABLE POLYIMIDAZOLIUMS AND OLIGOIMIDAZOLIUMS” (Nanyang Technological University, priority 2020, published 2023).
# Legend:
# [1] = tested on: MDR A. baumannii AB-1; assay: Murine septicemia model; type: in vivo, BALB/c mice; conditions: single dose 15 mg/kg
# Description: (§1) Murine septicemia model was used to evaluate the in vivo efficacy of PIM1D. The experiment for mice septicemia infection model of MDR P. aeruginosa PAER and MDR A. baumannfi AB-1 was conducted within guidance of approved protocol by the Institutional Care and Use Committee of Nanyang Technological University (NTU IACUC). The experiments for murine septicemia infection model of wild type P. aeruginosa PAO1 and methicillin-resistant S. aureus MRSA USA300 were conducted following protocol reviewed and approved by Animal Ethics and Welfare Committee (AEWC) of Ningbo University. BALB/c female mice (8-9 weeks of age) were used to test the septic shock protection efficacy for all murine infection models. Exponential phase bacteria were washed twice with saline, and re-suspended into the same volume of saline. 300 μL bacterial suspension with varied concentration in 5% mucin was introduced into each mouse via IP injection to first determine the lethal bacterial dosage, and the determined concentration was then used in the following study. […] Mouse survival was monitored over 7 days. […] Bacterial loads were also evaluated in the spleen, liver and kidney of the animal. […] The bacterial levels were analyzed with one-way classification analysis of variance (ANOVA) and two-tailed student's t-test (Graphpad Prism for Windows, version 7).
# [2] = tested on: P. aeruginosa PAO1; assay: Laboratory evolution of resistance, sequential passage; conditions: 30 days of passage
# [3] = tested on: MRSA USA300; assay: Neutropenic lung infection model; type: in vivo, BALB/c mice; conditions: 20 mg/kg intratracheal, one week
# Description: Immunosuppression was induced by IP injection of cyclophosphamide (150 mg/kg) at day 4 and cyclophosphamide (100 mg/kg) at day 1 into BALB/c female mice (8-9 weeks of age) before infection was introduced. Lung infection was established by intratracheal delivery of MRSA USA300 or K. pneumoniae (#13883). […] The mice were monitored for survival over one week. In a separate experiment, mice lungs were harvested 26 h post-infection and homogenized, followed by plating to check the bacterial burden. The animal study protocols were approved by animal ethics and welfare committee at Ningbo University.
# [4] = tested on: methicillin-resistant S. aureus MRSA USA300; assay: Murine septicemia model, immunosuppressed mice; type: in vivo, BALB/c mice; conditions: 15 mg/kg IP at 2 h and 26 h post-infection
# Description: as §1, with “7). […]” for “7).”
# [5] = tested on: P. aeruginosa PAO1; assay: Killing of stationary phase bacteria; type: cell-based, Pseudomonas aeruginosa
# Source text: We used a previously reported method (S. Meylan et al., Cell Chem. Biol. 2017, 24, 195-206) to determine the effect of PIM1 and other antibiotics on the survival of stationary phase P. aeruginosa PAO1, except the stationary-phase cells were obtained by overnight growth in MHB, and we compared PIM1 with GEN. The results were compared to those with P. aeruginosa PAO1 harvested from MHB culture at the mid-Log growth phase. In addition, we tested the ability of an energy source to potentiate PIM1 killing of stationary-phase P. aeruginosa by addition of fumarate (15 mM) to the stationary-phase cells.
# [6] = tested on: P. aeruginosa PAO1; assay: Membrane electric potential, DiS-C3-(5); type: cell-based, Pseudomonas aeruginosa; conditions: 30 min after addition
# Description: Agents Chemother. 2000, 44, 3317-3321). […] The cell suspension (180 μL) was then added to each well of a 96-well plate, and the test compounds were added to the wells as indicated to bring the final mixture to 200 μL. Fluorescence was measured in each well every 2 min in a Spark 10M microtiter plate reader (Tecan, Switzerland) with excitation at 622 nm and emission 670 nm. Data were collected at 30 min after the addition of the test compound. Two independent experiments were conducted, and the data here are mean values±SD.
# [7] = tested on: 3T3 cells; assay: Mammalian cell cytotoxicity, MTT; type: cell-based, Mouse; conditions: half-maximal inhibition of cell viability
# [8] = tested on: A. baumannii AB-1 (MDR); assay: MIC90 broth microdilution; type: cell-based, Acinetobacter baumannii
# [9] = tested on: Burkholderia thailandensis 700388; type: cell-based; parameters: MIC90 Burkholderia thailandensis 700388: unit not given here; conditions: naturally colistin-resistant
# [10] = tested on: Mycobacterium bovis bacillus Calmette-Guérin; type: cell-based
# [11] = tested on: A549 cells; assay: Mammalian cell cytotoxicity, MTT; type: cell-based, Human; conditions: half-maximal inhibition of cell viability
# [12] = tested on: A. baumannii X39; assay: MIC90 broth microdilution; type: cell-based, Acinetobacter baumannii; parameters: MIC90 A. baumanii X39 (XDR): unit not given here
# [13] = tested on: S. aureus BAA40 (MRSA); assay: MIC90 broth microdilution; type: cell-based, Staphylococcus aureus; parameters: unit not given here
# [14] = tested on: HEK293 cells; assay: Mammalian cell cytotoxicity, MTT; type: cell-based, Human; conditions: half-maximal inhibition of cell viability
# [15] = tested on: HepG2 cells; assay: Mammalian cell cytotoxicity, MTT; type: cell-based, Human; conditions: half-maximal inhibition of cell viability
# [16] = tested on: A. baumannii X26; assay: MIC90 broth microdilution; type: cell-based, Acinetobacter baumannii; parameters: MIC90 A. baumanii X26 (MDR): unit not given here
# [17] = tested on: P. aeruginosa PAER; assay: MIC90 broth microdilution; type: cell-based, Pseudomonas aeruginosa
# [18] = tested on: S. aureus USA300 (MRSA); assay: MIC90 broth microdilution; type: cell-based, Staphylococcus aureus
# [19] = tested on: E. faecalis 583 (VRE); assay: MIC90 broth microdilution; type: cell-based, Enterococcus faecalis; parameters: unit not given here
compound,measurement,setting,value
"C[C@@H](O)[C@H]1C(=O)N2C(C(=O)O)=C(SCCN=CN)C[C@H]12 [Imp, Imipenem]",survival,[1],80%
O=C(O)c1cn(C2CC2)c2cc(N3CCNCC3)c(F)cc2c1=O [ciprofloxacin],emergence of resistant mutants,[2],ciprofloxacin-resistant mutants emerged
CN[C@H](CC(C)C)C(=O)N[C@H]1C(=O)N[C@@H](CC(N)=O)C(=O)N[C@H]2C(=O)N[C@H]3C(=O)N[C@H](C(=O)N[C@H](C(=O)O)c4cc(O)cc(O)c4-c4cc3ccc4O)[C@H](O)c3ccc(c(Cl)c3)Oc3cc2cc(c3O[C@@H]2O[C@H](CO)[C@@H](O)[C@H](O)[C@H]2O[C@H]2C[C@](C)(N)[C@H](O)[C@H](C)O2)Oc2ccc(cc2Cl)[C@H]1O [vancomycin],survival,[3],40%
same,survival,[4],all mice survived
gentamicin,susceptibility of stationary phase cells to killing,"[5]; compared with killing by colistin, 4-h exposure",much less susceptible
same,bactericidal activity on stationary-phase cells with fumarate,[5]; fumarate 15 mM,restored
gramicidin,DiS-C3-(5) fluorescence (dissipation of membrane potential),[6],dramatic increase in DiS-C3-(5) fluorescence
polymyxin B,IC50 Mouse fibroblast (3T3),[7],920 μg per mL
same,MIC90 A. baumanii AB-1 (MDR),[8],2 mg per mL
same,MIC90 Burkholderia thailandensis 700388,[9],>128
same,MIC90 Mycobacterium bovis bacillus Calmette-Guérin,[10],64 mg per mL
same,IC50 Human epithelial (A549),[11],879 μg per mL
same,MIC90 A. baumanii X39 (XDR),[12],8
same,MIC90 S. aureus BAA40 (MRSA),[13],64-128
same,IC50 Human kidney (HEK293),[14],240 μg per mL
same,IC50 Human liver (HepG2),[15],765 μg per mL
same,MIC90 A. baumanii X26 (MDR),[16],4
same,MIC90 P. aeruginosa PAER,[17],2 mg per mL
same,MIC90 S. aureus USA300 (MRSA),[18],64-128 mg per mL
same,MIC90 E. faecalis 583 (VRE),[19],>128
